# In PubChem BioAssay AID1919006 (Molecular Pharmacology Branch, DTP, NCI, 2023):
# Where “and” joins values, the source holds several entries; their conditions need not be identical. Equal entries are not always repeated.
# System: 885512-296-R-J2-PDC complex spheroid growth, % test/control
# Assay: Anticancer human tumor 885512-296-R-J2-PDC patient-derived breast carcinoma cell line growth inhibition [AhR]
# Settings: for viability, T/C: stronger effect = lower value
# Description: Multicellular complex tumor spheroid response to aryl hydrocarbon receptor antagonists in combination with a variety of drugs and investigational agents in selected tumor cell lines
# The current study was undertaken to assess response to aryl hydrocarbon receptor antagonists in combination with standard-of-care drugs and investigational agents in solid tumor complex spheroid models. Complex spheroids include a stromal component modeled by human endothelial cells (HUVEC) and fibroblasts modeled by human mesenchymal stem cells (MSCs). The concentration ranges selected for each drug and investigational agent were based upon clinically achievable concentrations if the clinical Cmax of the agent was known.
# Compounds. The drugs and investigational agents: BAY 2416964 (NSC825713), GNF351 (NSC835774), CH-223191 (NSC835775), CPI-455 (NSC825282), aza-TdCyd (NSC777586), decitabine (NSC127716), belinostat (NSC758774), entinostat (NSC756642), pevonedistat (NSC761192), tazemetostat (NSC777109), talazoparib (NSC765396), olaparib (NSC753686), selinexor (NSC780203), nedisertib (M3814, NSC802822), bortezomib (NSC756655), venetoclax (NSC766270), doxorubicin (NSC123127), elimusertib (BAY189344, NSC800525), ceralasertib (AZD6738, NSC777638), TAK-243 (NSC785004), alisertib (NSC759677), etoposide (NSC141540), topotecan (NSC609699), eribulin (NSC707389), gemcitabine (NSC613327), carboplatin (NSC241240), cisplatin (NSC119875), and SN-38 (NSC673596) were obtained from the National Cancer Institute (NCI) Developmental Therapeutics Program Chemical Repository (32). The FDA-approved anticancer drug set is available from the Developmental Therapeutics Program at https://dtp.cancer.gov/organization/dscb/obtaining/available plates.htm. […] The stock solutions were prepared in dimethyl sulfoxide (DMSO, Sigma-Aldrich, St. Louis, MO, cat. D2650), except for the platinum compounds which were prepared in saline (Quality Biological, Gaithersburg, MD, cat. 114-055-101), at 800-fold the tested concentration and stored at -70 degrees C prior to their use. All drugs and investigational agents were tested over a range starting from a high concentration at or near the clinical Cmax and decreasing in half-log increments. If the clinical Cmax for an agent had not been determined, the highest concentration tested was 10 microM (Table 1).
# Cell Culture. All cells were maintained in an incubator at 37 degrees C and 5% CO2 with 95% humidity. The PDC lines were cultured according to standard operating procedures established by the NCI PDMR (https://pdmr.cancer.gov). Briefly, all PDCs were thawed and cultured in Matrigel-coated flasks prepared with a working solution of 1X Ham's F-12 nutrient mix, without supplementation (Invitrogen, Waltham, MA, cat. 11765054), 100 U/mL penicillin-streptomycin (Invitrogen, cat. 15140122), and 2.5% Matrigel (Corning Inc., Corning, NY, cat. 354248) for the first three passages. All PDCs were cultured in complete DMEM/F-12 media containing advanced DMEM/F-12 (Invitrogen, cat. 12634028), 4.9% defined fetal bovine serum, heat inactivated (HyClone Laboratories Inc., Logan, UT, cat. SH30070.03HI), 389 ng/mL hydrocortisone (Sigma-Aldrich, cat. H4001), 9.7 ng/mL human EGF recombinant protein (Invitrogen, cat. PHG0313), 23.4 microg/mL adenine (Sigma-Aldrich, cat. A2786), 97.3 U/mL penicillin-streptomycin (Invitrogen, cat. 15140122), 1.9 mM L-glutamine (Invitrogen, cat. 25030081), and 9.7 microM Y-27632 dihydrochloride (Tocris Bioscience, Bristol, United Kingdom, cat. 1254). The PDCs were cultured in complete DMEM/F12 media without 10 microM Y-27632 dihydrochloride for at least two passages prior to the screen. The established cell lines NCI-H1341 and […] were cultured in DMEM/F-12, HEPES (Invitrogen, cat. 11330032), 5% defined fetal bovine serum (HyClone Laboratories Inc., cat. SH30070.03), ITS premix universal culture supplement [insulin (5 microg/mL), transferrin (5 microg/mL), and selenious acid (5 ng/mL)] […]
# 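Note: spheroids exposed to compounds for seven days.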
smiles,measurement,setting,value
Nc1ncn(C2CC(O)C(CO)O2)c(=O)n1 (centres undefined),"viability, T/C",compound 0.00316 µM,90.1% and 103% and 107%
same,"viability, T/C",compound 0.01 µM,89.7% and 93.7% and 117%
same,"viability, T/C",compound 0.0316 µM,98.7% and 97.9% and 108%
same,"viability, T/C",compound 0.1 µM,82.1% and 86% and 107%
same,"viability, T/C",compound 0.316 µM,65.7% and 74.5% and 72%
same,"viability, T/C",compound 1 µM,41.9% and 42.8% and 39.9%
same,IC50,curve of compound,670 nM and 776 nM and 697 nM
O=C(c1cc(Cc2n[nH]c(=O)c3ccccc23)ccc1F)N1CCN(C(=O)C2CC2)CC1,"viability, T/C",compound 0.0316 µM,101% and 131% and 106%
same,"viability, T/C",compound 0.1 µM,109% and 125% and 105%
same,"viability, T/C",compound 0.316 µM,133% and 134% and 148%
same,"viability, T/C",compound 1 µM,141% and 121% and 151%
same,"viability, T/C",compound 3.16 µM,113% and 81.3% and 93.8%
same,"viability, T/C",compound 10 µM,34.5% and 20.2% and 30.2%
same,IC50,curve of compound,8010 nM and 5700 nM and 6980 nM
Nc1ncn(C2CC(O)C(CO)O2)c(=O)n1 (centres undefined) + CC(CO)NC(=O)c1cc(-c2ccc(Cl)cc2)nn(-c2cnn(C)c2)c1=O,IC50,"curve of first compound, second compound 0.1 µM",793 nM
same,IC50,"curve of first compound, second compound 0.316 µM",892 nM
same,IC50,"curve of first compound, second compound 1 µM",878 nM
same,IC50,"curve of first compound, second compound 3.16 µM",> 1000 nM
same,IC50,"curve of first compound, second compound 10 µM",> 1000 nM
same,"viability, T/C","second compound 0.1 µM, first compound 0.00316 µM",94.9%
same,"viability, T/C","second compound 0.1 µM, first compound 0.01 µM",94.5%
same,"viability, T/C","second compound 0.1 µM, first compound 0.0316 µM",85.5%
same,"viability, T/C","second compound 0.1 µM, first compound 0.1 µM",89%
same,"viability, T/C","second compound 0.1 µM, first compound 0.316 µM",76.3%
same,"viability, T/C","second compound 0.1 µM, first compound 1 µM",43%
same,"viability, T/C","second compound 0.316 µM, first compound 0.00316 µM",81.8%
same,"viability, T/C","second compound 0.316 µM, first compound 0.01 µM",88.4%
same,"viability, T/C","second compound 0.316 µM, first compound 0.0316 µM",91.5%
same,"viability, T/C","second compound 0.316 µM, first compound 0.1 µM",101%
same,"viability, T/C","second compound 0.316 µM, first compound 0.316 µM",80.8%
same,"viability, T/C","second compound 0.316 µM, first compound 1 µM",46.6%
same,"viability, T/C","second compound 1 µM, first compound 0.00316 µM",95.4%
same,"viability, T/C","second compound 1 µM, first compound 0.01 µM",104%
same,"viability, T/C","second compound 1 µM, first compound 0.0316 µM",90.5%
same,"viability, T/C","second compound 1 µM, first compound 0.1 µM",92.9%
same,"viability, T/C","second compound 1 µM, first compound 0.316 µM",77.7%
same,"viability, T/C","second compound 1 µM, first compound 1 µM",46%
same,"viability, T/C","second compound 3.16 µM, first compound 0.00316 µM",97.8%
same,"viability, T/C","second compound 3.16 µM, first compound 0.01 µM",95%
same,"viability, T/C","second compound 3.16 µM, first compound 0.0316 µM",82.7%
same,"viability, T/C","second compound 3.16 µM, first compound 0.1 µM",78.8%
same,"viability, T/C","second compound 3.16 µM, first compound 0.316 µM",88.9%
same,"viability, T/C","second compound 3.16 µM, first compound 1 µM",56.4%
same,"viability, T/C","second compound 10 µM, first compound 0.00316 µM",88.9%
same,"viability, T/C","second compound 10 µM, first compound 0.01 µM",92.5%
same,"viability, T/C","second compound 10 µM, first compound 0.0316 µM",84.1%
same,"viability, T/C","second compound 10 µM, first compound 0.1 µM",79.7%
same,"viability, T/C","second compound 10 µM, first compound 0.316 µM",82.3%
same,"viability, T/C","second compound 10 µM, first compound 1 µM",62.1%
